The results in this text go back to ChEMBL document CHEMBL5634123, “Design and synthesis of 1H-benzo[d]imidazole selective HDAC6 inhibitors with potential therapy for multiple myeloma” (Eur J Med Chem, 2023).

Active and inactive are the calls of the source. No cut-off for these calls is given here. A value given as a limit tells only on which side of the number the result lay.

A short description of series [1]: Half life in mouse at 10 mg/kg, po. Type of series: ADME, organism-based. The note with it: in vivo.
Series [2] has as its target T1, Histone deacetylase 7 (Homo sapiens, UniProt Q8WUI4).
T1 sequence (Q8WUI4 whole entry): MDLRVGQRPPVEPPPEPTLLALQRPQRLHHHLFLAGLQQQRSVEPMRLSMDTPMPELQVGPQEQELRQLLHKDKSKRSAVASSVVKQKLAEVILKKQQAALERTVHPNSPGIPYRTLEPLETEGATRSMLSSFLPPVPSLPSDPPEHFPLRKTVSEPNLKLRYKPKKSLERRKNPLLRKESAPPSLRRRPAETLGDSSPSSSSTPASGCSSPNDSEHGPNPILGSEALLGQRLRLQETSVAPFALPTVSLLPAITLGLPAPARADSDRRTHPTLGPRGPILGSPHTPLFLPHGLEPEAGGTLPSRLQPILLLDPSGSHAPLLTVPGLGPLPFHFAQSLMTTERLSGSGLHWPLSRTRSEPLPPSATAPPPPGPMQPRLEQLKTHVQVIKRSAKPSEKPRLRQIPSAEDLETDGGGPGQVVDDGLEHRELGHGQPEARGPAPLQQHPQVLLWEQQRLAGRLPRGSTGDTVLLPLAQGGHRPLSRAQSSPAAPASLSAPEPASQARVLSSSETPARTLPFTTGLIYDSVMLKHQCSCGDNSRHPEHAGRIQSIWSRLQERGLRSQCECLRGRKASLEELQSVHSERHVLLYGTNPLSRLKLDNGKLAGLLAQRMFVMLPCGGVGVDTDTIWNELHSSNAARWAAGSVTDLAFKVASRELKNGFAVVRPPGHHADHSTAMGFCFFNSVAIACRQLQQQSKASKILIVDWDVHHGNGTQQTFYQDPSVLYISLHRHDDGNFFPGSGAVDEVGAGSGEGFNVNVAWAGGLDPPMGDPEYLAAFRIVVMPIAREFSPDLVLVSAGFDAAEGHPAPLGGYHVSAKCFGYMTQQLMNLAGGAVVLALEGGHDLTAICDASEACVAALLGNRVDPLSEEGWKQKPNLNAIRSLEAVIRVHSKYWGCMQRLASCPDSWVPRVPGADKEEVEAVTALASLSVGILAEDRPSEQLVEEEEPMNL
The experiment in a line: Inhibition of HDAC7 (unknown origin) preincubated for 10 mins followed by substrate addition by fluorescence based assay.

The nature of series [3]: Toxicity in Balb/c nude mouse xenografted with human RPMI-8226 cells assessed as adverse effect on lung at 10 to 40 mg/kg, po qd for 21 days administered consecutively by H and E staining based analysis. The class given is organism-based. The following applies: in vivo, 504 h, dose 10-40 mg/kg, time 21 day. On the technique in general: In xenograft studies the graft and the host belong to different species.

The target in series [4] is T2, Protein deacetylase HDAC6 (Homo sapiens, UniProt Q9UBN7).
T2 sequence (Q9UBN7 whole entry): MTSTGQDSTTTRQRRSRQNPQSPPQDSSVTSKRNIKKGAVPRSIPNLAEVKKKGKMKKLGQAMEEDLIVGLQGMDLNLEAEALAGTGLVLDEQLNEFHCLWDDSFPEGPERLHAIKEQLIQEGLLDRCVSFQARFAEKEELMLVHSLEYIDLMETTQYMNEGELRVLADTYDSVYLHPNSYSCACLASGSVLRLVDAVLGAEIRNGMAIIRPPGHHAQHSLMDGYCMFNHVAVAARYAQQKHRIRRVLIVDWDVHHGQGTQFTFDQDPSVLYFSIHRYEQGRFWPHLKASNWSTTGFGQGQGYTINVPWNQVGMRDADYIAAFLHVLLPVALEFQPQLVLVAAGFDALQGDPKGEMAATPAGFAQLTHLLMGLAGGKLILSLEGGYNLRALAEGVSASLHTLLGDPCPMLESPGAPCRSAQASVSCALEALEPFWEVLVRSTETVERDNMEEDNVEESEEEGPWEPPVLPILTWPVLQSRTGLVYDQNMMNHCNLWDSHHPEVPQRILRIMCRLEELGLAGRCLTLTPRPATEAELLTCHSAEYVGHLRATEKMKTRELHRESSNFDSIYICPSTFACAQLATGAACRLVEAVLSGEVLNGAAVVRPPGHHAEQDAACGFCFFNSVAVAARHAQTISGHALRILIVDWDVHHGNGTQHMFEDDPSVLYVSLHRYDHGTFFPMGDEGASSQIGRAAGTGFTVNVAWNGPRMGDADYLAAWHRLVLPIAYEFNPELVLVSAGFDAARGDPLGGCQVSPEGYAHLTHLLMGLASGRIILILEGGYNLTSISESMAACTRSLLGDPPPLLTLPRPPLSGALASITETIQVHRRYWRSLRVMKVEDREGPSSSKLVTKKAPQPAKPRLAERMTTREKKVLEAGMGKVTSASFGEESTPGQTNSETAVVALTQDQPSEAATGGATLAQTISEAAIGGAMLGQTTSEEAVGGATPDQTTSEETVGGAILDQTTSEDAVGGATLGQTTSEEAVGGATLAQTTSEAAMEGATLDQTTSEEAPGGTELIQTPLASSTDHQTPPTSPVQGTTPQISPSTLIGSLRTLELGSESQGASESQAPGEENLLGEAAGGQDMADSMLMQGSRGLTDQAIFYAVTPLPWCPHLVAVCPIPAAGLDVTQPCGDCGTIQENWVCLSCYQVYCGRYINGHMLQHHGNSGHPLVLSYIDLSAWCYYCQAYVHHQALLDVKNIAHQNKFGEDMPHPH
Briefly: Inhibition of HDAC6 (unknown origin) preincubated for 10 mins followed by substrate addition measured for 1 hr by fluorescence based assay.

Series [5] is described as follows: Toxicity in Balb/c nude mouse xenografted with human RPMI-8226 cells assessed as body weight loss at 10 to 40 mg/kg, po qd for 21 days administered consecutively. The note with it: in vivo, 504 h, dose 10-40 mg/kg, time 21 day. Type of series: organism-based.
Series [6] in a line: Tmax in mouse at 10 mg/kg, po. The class given is ADME, organism-based. The note with it: in vivo.
Series [7] has as its system RPMI-8226. Briefly: Induction of apoptosis in human RPMI-8226 cells assessed as necrotic cells at 2.5 uM incubated for 24 hrs by Annexin V-FITC/PI staining based flow cytometry (reference value: 0.90 %). Type of series: functional. A general note: In flow cytometry, cells or beads pass a laser one at a time.
The nature of series [8]: Toxicity in Balb/c nude mouse xenografted with human RPMI-8226 cells assessed as adverse effect on kidney at 10 to 40 mg/kg, po qd for 21 days administered consecutively by H and E staining based analysis. Type of series: organism-based. The note with it: in vivo, 504 h, dose 10-40 mg/kg, time 21 day.
In series [9] the test system is RPMI-8226. The experiment in a line: Induction of apoptosis in human RPMI-8226 cells assessed as increase in APAF-1 expression at 0.1 to 2.5 uM incubated for 24 hrs by Western blot analysis. The class given is functional, cell-based. The following applies: dose 0.1-2.5 µM. For orientation: Immunoblotting shows a protein as a band on a membrane.
For series [10], the system named is RPMI-8226. The experiment in a line: Induction of apoptosis in human RPMI-8226 cells assessed as early apoptotic cells at 2.5 uM incubated for 24 hrs by Annexin V-FITC/PI staining based flow cytometry (reference value: 5.34 %). Type of series: functional.
In series [11] the test system is HCCLM3. The experiment in a line: Cytotoxicity against human HCCLM3 cells assessed as inhibition of cell viability incubated for 24 hrs by CCK8 assay. The class given is functional, cell-based. The note with it: HCCLM3, 24 h.
The subject of series [12] is RPMI-8226. Briefly: Induction of apoptosis in human RPMI-8226 cells assessed as early apoptotic cells at 0.1 uM incubated for 24 hrs by Annexin V-FITC/PI staining based flow cytometry (reference value: 5.34 %). The class given is functional.

As a reminder, the half-life is the time in which the quantity being followed falls by half. High values mean slow loss, low ones fast loss. For orientation: IC50 means the concentration that gives 50% inhibition. For orientation: Tmax means the time at which the peak concentration occurs. `Cn1c([C@@H](Cc2ccccc2)NCc2ccccc2)nc2cc(C(=O)NO)ccc21`: the half-life in series [1] is 20 min. Moreover, the IC50 in [2] is 1230 nM; in series [4], 4.63 nM; in [11] it was above 50000 nM. Moreover, the Activity entry in series [3] was “Non-Toxic”; in series [5], “Non-Toxic”; in [7] it was 0.26%; in series [8] it was “Non-Toxic”; in series [10], 18.97%; in series [12], 12.79%. Moreover, the Tmax in [6] was found to be 20 min. The outcome in series [9] was Active.
